The target in one assay is hM2 receptors (Homo sapiens, UniProt P08172). As to conditions: AV12 Gα15 hM2; too modest to be accurately estimated.
Another assay addresses T1, hM5 receptors (Homo sapiens, UniProt P08912).
T1 construct: expressed in transfected cells
T1 sequence (P08912 1-532): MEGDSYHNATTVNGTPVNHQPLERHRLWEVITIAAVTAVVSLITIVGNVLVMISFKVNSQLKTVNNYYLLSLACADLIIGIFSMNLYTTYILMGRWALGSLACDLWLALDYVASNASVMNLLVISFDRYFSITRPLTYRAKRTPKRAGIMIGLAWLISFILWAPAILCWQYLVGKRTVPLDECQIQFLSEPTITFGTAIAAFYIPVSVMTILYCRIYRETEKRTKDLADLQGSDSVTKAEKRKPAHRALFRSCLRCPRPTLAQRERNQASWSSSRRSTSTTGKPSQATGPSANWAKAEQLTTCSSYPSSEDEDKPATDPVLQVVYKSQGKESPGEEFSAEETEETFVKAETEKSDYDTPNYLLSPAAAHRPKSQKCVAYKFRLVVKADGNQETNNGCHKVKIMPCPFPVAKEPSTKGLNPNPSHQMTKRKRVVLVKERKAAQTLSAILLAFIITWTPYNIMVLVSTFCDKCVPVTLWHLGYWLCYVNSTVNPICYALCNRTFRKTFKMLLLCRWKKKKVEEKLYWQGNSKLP
Nature of the assay: Calcium mobilization (FLIPR), ACh concentration-response curves, CHO hM5 cells. It is filed as cell-based. The settings on record: CHO cells stably expressing hM5. The method, then: (§1) Automated multiple compound additions are timed by computer program. Cells are pre-incubated with increasing concentration of compounds.

The target in the next assay is T2, hM3 receptors (Homo sapiens, UniProt P20309).
T2 construct: expressed in transfected cells
Description: Calcium mobilization (FLIPR), ACh concentration-response curves, CHO hM3 cells. The class given is cell-based. The settings on record: CHO cells stably expressing hM3. As for the experimental part:
as §1

In another assay the target is T3, hM4 receptors (Homo sapiens, UniProt P08173).
T3 construct: expressed in transfected cells
T3 sequence (P08173 1-479): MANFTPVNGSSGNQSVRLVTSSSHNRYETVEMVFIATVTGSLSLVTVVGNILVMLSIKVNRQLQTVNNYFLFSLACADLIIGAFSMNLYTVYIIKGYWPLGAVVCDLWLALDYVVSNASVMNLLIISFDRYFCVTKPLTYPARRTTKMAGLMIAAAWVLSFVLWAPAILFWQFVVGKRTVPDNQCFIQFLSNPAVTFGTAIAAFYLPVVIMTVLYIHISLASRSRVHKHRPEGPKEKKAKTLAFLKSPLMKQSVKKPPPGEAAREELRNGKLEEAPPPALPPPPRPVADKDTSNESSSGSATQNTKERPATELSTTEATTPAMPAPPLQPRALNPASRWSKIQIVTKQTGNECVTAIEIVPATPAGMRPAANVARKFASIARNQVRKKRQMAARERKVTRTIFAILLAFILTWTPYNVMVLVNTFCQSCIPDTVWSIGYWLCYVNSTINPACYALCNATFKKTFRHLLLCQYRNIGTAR
Description: Calcium mobilization (FLIPR), ACh concentration-response curves, AV12 Gα15 hM4 cells. It is filed as cell-based. As for the experimental part: as §1

A further assay addresses T4, hM1 receptors (Homo sapiens, UniProt P11229).
T4 construct: expressed in transfected cells
T4 sequence (P11229 1-460): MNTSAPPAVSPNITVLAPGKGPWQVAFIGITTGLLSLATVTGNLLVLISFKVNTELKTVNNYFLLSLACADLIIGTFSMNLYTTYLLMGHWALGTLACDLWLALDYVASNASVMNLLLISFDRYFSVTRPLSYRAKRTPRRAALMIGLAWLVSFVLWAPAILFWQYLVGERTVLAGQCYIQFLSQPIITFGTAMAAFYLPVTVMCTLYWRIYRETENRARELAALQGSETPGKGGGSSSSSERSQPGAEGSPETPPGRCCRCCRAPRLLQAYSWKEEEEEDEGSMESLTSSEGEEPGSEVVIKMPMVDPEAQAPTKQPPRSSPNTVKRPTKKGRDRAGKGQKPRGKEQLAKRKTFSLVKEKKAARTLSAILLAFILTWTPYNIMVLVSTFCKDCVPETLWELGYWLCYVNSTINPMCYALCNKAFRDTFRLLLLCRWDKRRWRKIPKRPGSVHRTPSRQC
Description: Calcium mobilization (FLIPR), ACh concentration-response curves, CHO hM1 cells. The class given is cell-based. As to conditions: CHO cells stably expressing hM1. The method, then:
as §1

A further assay concerns Male Fisher-344 rats. Description: Conditioned avoidance response. It is filed as in vivo, rat. From the text:
The apparatus is a Coulbourn Instruments shuttle operant chamber. Each session equals a total of 50 trials, presented on a 30 second inter-trial interval, and each trial begins with simultaneous illumination of a houselight and rising of a guillotine door. The rat is given 10 seconds to cross over to the other side (an avoidance response) before a 1 mA footshock is initiated. The shock remains on until the rat crosses over to the other side (an escape response) or 10 seconds has elapsed (an escape failure). […] The number of avoidance, escape and escape failure responses during each session is recorded and used for analysis.
Each test compound is administered orally 2 hours prior to testing. Oxo (0.03 mg/kg) is administered subcutaneously 30 minutes prior to testing. Data are analyzed via a one-way (within-group design) Analysis of Variance (ANOVA). In cases of a significant ANOVA (p<0.05), post-hoc comparisons may be made in which compound doses are compared back to the Oxo alone group (paired t-test).

Where “and” joins values, the source holds several entries; their conditions need not be identical. Equal entries are not always repeated.

Chain of hM2 receptors (P08172 whole entry): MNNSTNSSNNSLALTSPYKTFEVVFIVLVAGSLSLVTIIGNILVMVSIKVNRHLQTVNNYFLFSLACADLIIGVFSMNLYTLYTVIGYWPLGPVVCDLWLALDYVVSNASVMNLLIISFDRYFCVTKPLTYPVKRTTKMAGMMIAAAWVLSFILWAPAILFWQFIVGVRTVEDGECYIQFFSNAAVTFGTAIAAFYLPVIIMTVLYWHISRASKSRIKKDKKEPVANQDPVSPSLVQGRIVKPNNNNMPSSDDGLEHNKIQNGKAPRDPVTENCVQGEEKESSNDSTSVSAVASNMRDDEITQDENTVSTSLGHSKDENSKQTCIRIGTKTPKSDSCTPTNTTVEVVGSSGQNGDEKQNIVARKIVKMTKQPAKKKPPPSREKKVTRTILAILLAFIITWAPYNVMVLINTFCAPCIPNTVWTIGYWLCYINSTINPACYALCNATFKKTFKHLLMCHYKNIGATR
T2 sequence (P20309 whole entry): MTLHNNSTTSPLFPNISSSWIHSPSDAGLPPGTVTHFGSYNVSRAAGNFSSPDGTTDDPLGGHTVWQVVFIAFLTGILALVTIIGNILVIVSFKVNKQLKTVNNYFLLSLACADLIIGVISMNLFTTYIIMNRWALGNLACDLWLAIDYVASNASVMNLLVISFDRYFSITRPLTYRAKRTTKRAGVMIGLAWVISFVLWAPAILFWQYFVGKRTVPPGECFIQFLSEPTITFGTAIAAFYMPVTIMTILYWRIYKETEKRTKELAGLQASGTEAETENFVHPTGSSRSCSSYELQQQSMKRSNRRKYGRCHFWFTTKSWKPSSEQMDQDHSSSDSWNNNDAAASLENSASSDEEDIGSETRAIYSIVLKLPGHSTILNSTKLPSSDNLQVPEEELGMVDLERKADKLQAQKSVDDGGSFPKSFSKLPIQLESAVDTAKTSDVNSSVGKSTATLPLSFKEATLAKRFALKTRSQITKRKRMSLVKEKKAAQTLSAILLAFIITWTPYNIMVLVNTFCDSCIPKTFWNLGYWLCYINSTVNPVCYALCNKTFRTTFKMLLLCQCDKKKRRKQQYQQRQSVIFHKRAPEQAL
Description for hM2 receptors: Using a calcium-sensitive fluorescent dye, agonist or potentiation activity of a given compound can be detected in a single assay using a Fluorescence Light Imaging Plate Reader (FLIPR) instrument. Cells are plated in Poly-D-Lysine coated black plates/clear bottom (Becton Dickinsons) at 40,000 cells per ml (100 μl/well) in growth media 24 hours prior to running the assay. The medium is removed before the addition of 50 μl fluorescence dye solution (HBSS containing 20 mM Hepes, 10 μM Fluo-3-AM, 0.05% pluronic acid F127; supplemented with 2.5 mM probenecid for CHO cell assays). The cells are incubated with the dye for 75 minutes before replacing with assay buffer (20 mM Hepes in Hanks balanced salt solution (Gibco); supplemented with 2.5 mM probenecid for CHO cells). The plate is transferred to the FLIPR machine (Molecular Devices) for fluorescence recordings. The cells are periodically excited by 488 nm light, and the emitted fluorescent light passed through a 510-570 nm filter and then detected by a cooled CCD camera. Automated multiple compound additions are timed by computer program. Cells are pre-incubated with increasing concentration of compounds. After 2 minutes, a range of acetylcholine concentrations is added to each concentration of compound. […]

`COc1nc2sc(C(=O)NC3CC3)c(N)c2c(C)c1Cl` [Example 1, 3-Amino-5-chloro-6-methoxy-4-methyl-thieno[2,3-b]pyridine-2-carboxylic acid cyclopropylamide]: the “allosteric effect on ACh response” value on hM2 receptors is “modest allosteric effect”; at hM5 receptors, “No significant allosteric effect”; at hM3 receptors, “No significant allosteric effect”; at hM1 receptors it was “No significant allosteric effect”. Further, the Kd at hM4 receptors was determined as 200 ± 42 nM. In addition, on hM4 receptors (FLIPR, both non-selective full muscarinic agonists, receptor subtype not given), the “potentiation of acetylcholine versus carbachol” value is on record as “potentiated in an equivalent fashion”. Further, on hM4 receptors (estimated, FLIPR, ACh curves, AV12 Gα15 hM4, duplicates, at least three experiments), the “cooperatively factor for hM4 receptors” value is given as 34.5±3.5.
Regarding `Cc1c(Cl)c(OCCN2CCOCC2)nc2sc(C(=O)NC3CC3)c(N)c12` [Example 6, 3-Amino-5-chloro-4-methyl-6-(2-morpholin-4-yl-ethoxy)-thieno[2,3-b]pyridine-2-carboxylic acid cyclopropylamide], the “Percent Avoidance Response (Mean ± S.E.M.), Oxo + Test Compound 10 mg/kg” value with Male Fisher-344 rats (test compound 10 mg/kg orally 2 hours prior, Oxo 0.03 mg/kg s.c. 30 minutes prior) was 90 ± 3.4%.
As for `Cc1c(Cl)c(OCC(=O)N2CCN(C)CC2)nc2sc(C(=O)NC3CC3)c(N)c12` [Example 10], the “Percent Avoidance Response (Mean ± S.E.M.), Oxo + Test Compound 10 mg/kg” value with Male Fisher-344 rats (rat, in vivo) came to 85 ± 5.3%.
On to `Cc1c(Cl)c(OCCN2CCOCC2)nc2sc(C(=O)NC3CC3)c(N)c12.Cl` [Example 28, 3-Amino-5-chloro-4-methyl-6-(2-morpholin-4-yl-ethoxy)-thieno[2,3-b]pyridine-2-carboxylic acid cyclopropylamide hydrochloride], for which the “Percent Avoidance Response (Mean ± S.E.M.), Oxo + Test Compound 30 mg/kg” value with Male Fisher-344 rats (test compound 30 mg/kg orally 2 hours prior, Oxo 0.03 mg/kg s.c. 30 minutes prior) is recorded as 84 ± 6.3%.
In the case of oxotremorine sesquifumarate, the “Percent Avoidance Response (Mean ± S.E.M.), Oxo alone” value with Male Fisher-344 rats (Oxo 0.03 mg/kg subcutaneously 30 minutes prior to testing, first Oxo alone group) was 93 ± 1.8% and 93 ± 1.2% and 89 ± 3.8% and 92 ± 1.5%. The “Percent Avoidance Response (Mean ± S.E.M.), Oxo alone (retest)” value with Male Fisher-344 rats (retest of Oxo alone, 0.03 mg/kg subcutaneously 30 minutes prior to testing, 0.03 mg/kg) is 91 ± 0.9% and 90 ± 2.5% and 89 ± 3.2% and 91 ± 2.0%.

Source of the values: patent publication US8071776B2, “Thienopyridines as allosteric potentiators of the M4 muscarinic receptor” (Eli Lilly and Company, priority 2004, dated 2011).
